A word on the Cmax: it is the peak of the concentration-time curve. What is called half-life is the time needed for the level to fall by half in the phase considered. Read a low half-life as rapid decline. A word on the clearance: it is a measure of how efficiently the substance is removed, as volume per time.

The data set in a line: Pharmacokinetics in mouse plasma. Format: in vivo. The note with it: for Cmax: mouse plasma. On the procedure:
Pharmacokinetic parameters for Compound 7. Compound 7 was quantified in mouse plasma using protein precipitation, internal standardization, and HPLC-MS/MS. Acetone was used to precipitate proteins and Compound 8 was the internal standard. Compound 7 and Compound 8 were separated using a C8 50×4.6 mm 5 um (Restek Ultra) HPLC column and a gradient mobile phase (acetonitrile:5 mM ammonium acetate). Compounds were detected using ESI in positive mode (Thermo Quantum Ultra; Thermo Fisher). The Q1/Q3 for Compound 7 and Compound 8 were 1087/300 and 957/231, respectively. The lower limit of quantification was 100 ng/mL using 20 μL of mouse plasma.
Pharmacokinetic parameters were estimated for Compound 7 after 5 mg/kg intravenous and 20 mg/kg intraperitoneal dosage, respectively. These parameters including area under the curve (AUC), area under the first moment curve (AUMC) and the elimination rate constant, kel, were estimated using noncompartmental methods with add-ins on Excel®. The maximum plasma concentration (Cmax) was obtained from the data. For the intravenous injection, the Cmax was estimated by extrapolating the data to zero time. The terminal half-life, t1/2, was estimated with 0.693/kel. The AUC from the last concentration, Clast, to infinity was estimated by Clast/kel. The systemic clearance (Cl or Cl/F) was calculated with dose/AUC0-∞ and the volume of distribution at steady state (Vdss or Vdss/F) was calculated using the Cl and the mean residence time (MRT; MRT=(Dose/AUC)×(AUMC/AUC)). The bioavailability (F) was estimated by comparing the Cl of intravenous and intraperitoneal injections.

The mark [1] stands for this setting: mouse, 20 mg/Kg intraperitoneal injection.
The mark [2] stands for this setting: plasma, mouse, 5 mg/Kg intravenous injection.

Take `COc1cc(CC(=O)NCC(NC(=O)C(CCCNC(=O)c2cccc(I)c2)NC(=O)C(Cc2ccc(C(F)(F)P(=O)(O)O)cc2)NC(=O)c2ccc(C)c(Br)c2)C(N)=O)ccc1O` (stereo not drawn) [Compound 7]: the concentration (ip, 20 mg/Kg intraperitoneal injection) peaked (Cmax) at 4.5 µM. Moreover, the Cmax (5 mg/Kg intravenous injection, extrapolated to zero time) was 25.7 µM. In addition, under setting [1], the Cl/F stood at 0.047 L/h and the t1/2 stood at 1.8 h. For the same molecule, the half-life (plasma, ip, mouse, 20 mg/Kg intraperitoneal injection) was 108 min. Besides, where the note is “plasma, ip, mouse, 20 mg/Kg intraperitoneal injection, read-out: Vdss/F”, the Vd/F came out at 0.08 L. Under setting [2], this molecule had a clearance of 0.233 mL/min and a half-life of 48 min. Further, the Vd (plasma, mouse, 5 mg/Kg intravenous injection, read-out: Vdss) was found to be 0.007 L.

The record behind these values is patent publication US9340574B2, “Inhibitors of protein tyrosine phosphatases” (Indiana University Research and Technology Corporation, priority 2012, dated 2016).
